Literature values in US10325677B2, “Apparatus and computerized method for optimizing or generating a sigma profile for a molecule” (Texas Tech University System, priority 2014, dated 2019).

Conditions: published in the literature

For `Cn1c(=O)c2c(ncn2C)n(C)c1=O` [Caffeine, caffeine], the “NRTL-SAC Conceptual Segment Number X” value is given as −0.105, the “NRTL-SAC Conceptual Segment Number Y^+” value is given as 1.211 and the “NRTL-SAC Conceptual Segment Number Y^−” value is given as 0.282. For the same molecule, the “NRTL-SAC Conceptual Segment Number Z” value was 0.211.
